Assays:
foxtail, giant [1] = experiment: Test A postemergence; type: in vivo, Setaria faberii; conditions: Postemergence, 1000 g ai/ha; visual rating after approx. 10 days, 0 to 100 scale (0 no effect, 100 complete control)
Outline: (§1)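 Ratings express plant response from 0 (no effect) to 100 (complete control), judged visually against untreated controls after approximately 10 days in the greenhouse. Preemergence applications were made as directed soil sprays onto seeded loam–sand mix, and postemergence applications onto 2–10 cm plants at one- to two-leaf stage.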

morningglory [2] = experiment: Test A postemergence; type: in vivo, Ipomoea spp.; conditions: Postemergence, 1000 g ai/ha; visual rating after approx. 10 days, 0 to 100 scale (0 no effect, 100 complete control)
Outline: as §1

velvetleaf [3] = experiment: Test A postemergence; type: in vivo, Abutilon theophrasti; conditions: Postemergence, 1000 g ai/ha; visual rating after approx. 10 days, 0 to 100 scale (0 no effect, 100 complete control)
Outline: as §1

morningglory [4] = experiment: Test A preemergence; type: in vivo, Ipomoea spp.; conditions: Preemergence, 1000 g ai/ha; 0 to 100 scale, 0 no effect, 100 complete control
Outline: as §1

barnyardgrass [5] = experiment: Test C flooded paddy test; type: in vivo, Echinochloa crus-galli; conditions: Flood
Excerpt: (§2) At time of treatment, test pots were flooded to 3 cm above the soil surface, treated by application of test compounds directly to the paddy water, and then maintained at that water depth for the duration of the test. Treated plants and controls were maintained in a greenhouse for 13 to 15 days, after which time all species were compared to controls and visually evaluated. […] A dash (-) response means no test result.

crabgrass, large [6] = experiment: Test A preemergence; type: in vivo, Digitaria sanguinalis; conditions: Preemergence, 1000 g ai/ha; 0 to 100 scale, 0 no effect, 100 complete control
Outline: as §1

rice = experiment: Test C flooded paddy test; type: in vivo, Oryza sativa; conditions: Flood
Excerpt: as §2

ducksalad = experiment: Test C flooded paddy test; type: in vivo, Heteranthera limosa; conditions: Flood
Excerpt: as §2

foxtail, giant [7] = experiment: Test A preemergence; type: in vivo, Setaria faberii; conditions: Preemergence, 1000 g ai/ha; 0 to 100 scale, 0 no effect, 100 complete control
Outline: as §1

velvetleaf [8] = experiment: Test A preemergence; type: in vivo, Abutilon theophrasti; conditions: Preemergence, 1000 g ai/ha; 0 to 100 scale, 0 no effect, 100 complete control
Outline: as §1

pigweed [9] = experiment: Test A preemergence; type: in vivo, Amaranthus retroflexus; conditions: Preemergence, 1000 g ai/ha; 0 to 100 scale, 0 no effect, 100 complete control
Outline: as §1

wheat [10] = experiment: Test A preemergence; type: in vivo, Triticum aestivum
Outline: as §1

barnyardgrass [11] = experiment: Test A preemergence; type: in vivo, Echinochloa crus-galli; conditions: Preemergence, 1000 g ai/ha; 0 to 100 scale, 0 no effect, 100 complete control
Outline: as §1

sedge, umbrella = experiment: Test C flooded paddy test; type: in vivo, Cyperus difformis; conditions: Flood
Excerpt: as §2

crabgrass, large [12] = experiment: Test A postemergence; type: in vivo, Digitaria sanguinalis; conditions: Postemergence, 1000 g ai/ha; visual rating after approx. 10 days, 0 to 100 scale (0 no effect, 100 complete control)
Outline: as §1

pigweed [13] = experiment: Test A postemergence; type: in vivo, Amaranthus retroflexus; conditions: Postemergence, 1000 g ai/ha; visual rating after approx. 10 days, 0 to 100 scale (0 no effect, 100 complete control)
Outline: as §1

corn [14] = experiment: Test A preemergence; type: in vivo, Zea mays; conditions: Preemergence, 1000 g ai/ha; 0 to 100 scale, 0 no effect, 100 complete control
Outline: as §1

corn [15] = experiment: Test A postemergence; type: in vivo, Zea mays; conditions: Postemergence, 1000 g ai/ha; visual rating after approx. 10 days, 0 to 100 scale (0 no effect, 100 complete control)
Outline: as §1

wheat [16] = experiment: Test A postemergence; type: in vivo, Triticum aestivum; conditions: Postemergence, 1000 g ai/ha; visual rating after approx. 10 days, 0 to 100 scale (0 no effect, 100 complete control)
Outline: as §1

barnyardgrass [17] = experiment: Test A postemergence; type: in vivo, Echinochloa crus-galli; conditions: Postemergence, 1000 g ai/ha; visual rating after approx. 10 days, 0 to 100 scale (0 no effect, 100 complete control)
Outline: as §1

[18] = 31 g ai/ha, scale 0 to 100 (0 no effect, 100 complete control)
[19] = 62 g ai/ha, scale 0 to 100 (0 no effect, 100 complete control)
[20] = Preemergence, 1000 g ai/ha, 0 to 100 scale, 0 no effect, 100 complete control
[21] = preemergence, 500 g ai/ha, visual injury after approx. 10 days, 0 to 100 scale (0 no effect, 100 complete control)

| Compound | Foxtail, Giant plant response rating (foxtail, giant [1]) | Morningglory plant response rating (morningglory [2]) | Velvetleaf plant response rating (velvetleaf [3]) | Morningglory plant response rating (morningglory [4]) | Plant response rating, Barnyardgrass (barnyardgrass [5]; [18]) | Plant response rating, Barnyardgrass (barnyardgrass [5]; [19]) | Plant response rating, Barnyardgrass (barnyardgrass [5]; 125 g ai/ha, scale 0 to 100) | Plant response rating, Barnyardgrass (barnyardgrass [5]; 250 g ai/ha, scale 0 to 100) | Crabgrass, Large plant response rating (crabgrass, large [6]) | Foxtail, Giant plant response rating (foxtail, giant [7]) | Velvetleaf plant response rating (velvetleaf [8]) | Pigweed plant response rating (pigweed [9]) | Wheat plant response rating (wheat [10]; [20]) | Barnyardgrass plant response rating (barnyardgrass [11]) | Crabgrass, Large plant response rating (crabgrass, large [12]) | Pigweed plant response rating (pigweed [13]) | Corn plant response rating (corn [14]) | Corn plant response rating (corn [15]) | Wheat plant response rating (wheat [16]) | Barnyardgrass plant response rating (barnyardgrass [17]) | other results |
| --- | --- | --- | --- | --- | --- | --- | --- | --- | --- | --- | --- | --- | --- | --- | --- | --- | --- | --- | --- | --- | --- |
| CCCNC(=O)c1cc(CCC)n(Cc2cccc(OC(F)(F)F)c2)n1 [Compound 35] | 40 | 100 | 100 | 50 | 0 | 0 | 10 | 10 | 100 | 100 | 50 | 90 | 0 | 70 | 70 | 90 | 0 | 20 | 20 | 30 | Plant response rating, Rice (rice; [18]): 0; Plant response rating, Rice (rice; [19]): 0; Plant response rating, Rice (rice; 125 g ai/ha, scale 0 to 100): 0; Plant response rating, Rice (rice; 250 g ai/ha, scale 0 to 100): 0; Plant response rating, Ducksalad (ducksalad; [18]): 0; Plant response rating, Ducksalad (ducksalad; [19]): 20; Plant response rating, Ducksalad (ducksalad; 125 g ai/ha, scale 0 to 100): 20; Plant response rating, Ducksalad (ducksalad; 250 g ai/ha, scale 0 to 100): 60; Plant response rating, Sedge, Umbrella (sedge, umbrella; [18]): 20; Plant response rating, Sedge, Umbrella (sedge, umbrella; [19]): 30; Plant response rating, Sedge, Umbrella (sedge, umbrella; 125 g ai/ha, scale 0 to 100): 50; Plant response rating, Sedge, Umbrella (sedge, umbrella; 250 g ai/ha, scale 0 to 100): 80 |
| CCCc1cc(C(=O)NCC(F)(F)F)nn1Cc1cccc(OC(F)(F)F)c1 [Compound 32] | 50 | 100 | 80 | 50 | 0 | 0 | 0 | 0 | 100 | 100 | 30 | 100 | 0 | 70 | 70 | 100 | 0 | 30 | 20 | 40 | Plant response rating, Rice (rice; [18]): 0; Plant response rating, Rice (rice; [19]): 0; Plant response rating, Rice (rice; 125 g ai/ha, scale 0 to 100): 0; Plant response rating, Rice (rice; 250 g ai/ha, scale 0 to 100): 0; Plant response rating, Ducksalad (ducksalad; [18]): 10; Plant response rating, Ducksalad (ducksalad; [19]): 20; Plant response rating, Ducksalad (ducksalad; 125 g ai/ha, scale 0 to 100): 50; Plant response rating, Ducksalad (ducksalad; 250 g ai/ha, scale 0 to 100): 70; Plant response rating, Sedge, Umbrella (sedge, umbrella; [18]): 20; Plant response rating, Sedge, Umbrella (sedge, umbrella; [19]): 30; Plant response rating, Sedge, Umbrella (sedge, umbrella; 125 g ai/ha, scale 0 to 100): 50; Plant response rating, Sedge, Umbrella (sedge, umbrella; 250 g ai/ha, scale 0 to 100): 80 |
| CCCNC(=O)c1cc(CC)n(Cc2cccc(C(F)(F)F)c2)n1 [Compound 16] | 80 | 100 | 100 | 100 | 0 | 0 | 0 | 20 | 100 | 100 | 30 | 100 | 50 | 90 | 80 | 90 | 50 | 50 | 50 | 60 | Plant response rating, Rice (rice; [18]): 0; Plant response rating, Rice (rice; [19]): 0; Plant response rating, Rice (rice; 125 g ai/ha, scale 0 to 100): 25; Plant response rating, Rice (rice; 250 g ai/ha, scale 0 to 100): 25; Plant response rating, Ducksalad (ducksalad; [18]): 50; Plant response rating, Ducksalad (ducksalad; [19]): 85; Plant response rating, Ducksalad (ducksalad; 125 g ai/ha, scale 0 to 100): 95; Plant response rating, Ducksalad (ducksalad; 250 g ai/ha, scale 0 to 100): 100; Plant response rating, Sedge, Umbrella (sedge, umbrella; [18]): 70; Plant response rating, Sedge, Umbrella (sedge, umbrella; [19]): 85; Plant response rating, Sedge, Umbrella (sedge, umbrella; 125 g ai/ha, scale 0 to 100): 100; Plant response rating, Sedge, Umbrella (sedge, umbrella; 250 g ai/ha, scale 0 to 100): 100 |
| CCc1cc(C(=O)N(C)CC)nn1Cc1cccc(C(F)(F)F)c1 [Compound 42] | 30 | 60 | 40 | 30 |  |  |  |  | 40 | 30 | 0 | 10 | 0 | 0 | 50 | 60 | 0 | 30 | 0 | 20 |  |
| C=CCNC(=O)c1cc(CC)n(Cc2cccc(OC(F)(F)F)c2)n1 [Compound 58] | 20 | 50 | 50 | 20 |  |  |  |  | 70 | 20 | 0 | 70 | 0 | 10 | 30 | 60 | 0 | 20 | 0 | 20 | Wheat plant response rating (wheat [10]; [21]): 0 |
| CCc1cc(C(=O)NCC(C)C)nn1Cc1cccc(OC(F)(F)F)c1 [Compound 60] | 40 | 100 | 60 | 20 |  |  |  |  | 90 | 100 | 0 | 90 | 0 | 30 | 30 | 60 | 0 | 30 | 20 | 20 | Wheat plant response rating (wheat [10]; [21]): 0 |
| CCc1cc(C(=O)NC2CC2)nn1Cc1cccc(C(F)(F)F)c1 [Compound 15] | 90 | 100 | 100 | 90 |  |  |  |  | 100 | 100 | 100 | 90 | 20 | 90 | 90 | 80 | 20 | 70 | 50 | 80 |  |
